Literature values in patent publication US20180280392A1, “PHARMACEUTICAL PREPARATION COMPRISING CYCLIN INHIBITOR AND PREPARATION METHOD THEREOF” (Jiangsu Hansoh Pharmaceutical Group Co., Ltd., priority 2014, published 2018).
Like-named read-outs stand apart in the source and are kept apart here.

Test system: phosphorylation of retinoblastoma tumor suppressor (RB) in MDA-MB-435 breast cancer cells

## CC(=O)c1c(C)c2cnc(Nc3ccc(N4CCNCC4)cn3)nc2n(C2CCCC2)c1=O [compound of formula I, 6-acetyl-8-cyclopentyl-5-methyl-2-(5-piperazin-1-yl-pyridin-2-yl-amino)-8H-pyrido[2,3-d]pyrimidin-7-one]
Ser780 site, read-out: IC50, reduction of phosphorylation of RB on Ser780
  IC50: 66 nM
Ser795 site, read-out: IC50, reduction of phosphorylation of RB on Ser795
  IC50: 63 nM
